Experimental data taken from patent US20120015925A1, “NOVEL BENZOTHIAZEPINE AND BENZOTHIEPINE COMPOUNDS” (ASAHI KASEI PHARMA CORPORATION, priority 2004, published 2012).

Experiments:
rats dosed cholic acid = test: Lowering effect on bile acid concentrations in portal vein blood in rats dosed cholic acid; type: in vivo, rat
Procedure: In the present Test Example, a lowering effect on bile acid concentrations in portal vein blood in rats dosed cholic acid was evaluated according to the method described in Jpn. Pharmacol. Ther., Vol. 24 Supplement, 1996, 103(S-577)-110(S-584).
That is, SD (IGS) strain male rats at 7 to 9 weeks of age were fasted one day before the administration date. […] The blood was collected from the portal vein 2 hours after the forced oral administration, and a total bile acid value in serum was measured to examine the effect of the test compound (n=6). As a control, another group (n=6) merely received cholic acid (200 mg/kg), to which the same procedure was applied. The cholic acid value was measured using the commercially available kit (brand name: Total Bile Acid-Test Wako, supplied form Wako Pure Chemical Industries). Defining the value in the control group to which no test compound had been administered as being 100%, a reduction rate (%) of the bile acid value when a certain amount of the test compound had been administered was calculated.

Caco-2 cell = test: Gastrointestinal toxicity: cytotoxicity against Caco-2 cell (LDH activity); type: cell-based, human; conditions: 2 hours, LDH activity in medium relative to cell lysis agent = 100%
Procedure: That is, 10,000 cells/well of Caco-2 cells (purchased from ATCC) were seeded in a 96-well plate [MEM-E medium, 10% FBS (Fetal Bovine Serum), 1% NEAA (Non Essential Amino Acid) solution, supplied from Gibco]. After culturing for 48 hours, the test compound diluted with the medium was added to each well. After 2 hours, 50 μL of the medium was collected, and an LDH activity in the medium was measured using an LDH activity measurement kit (CytoTox96 Non-Radioactive Cytotoxicity Assay, supplied from Promega). Defining the LDH activity of the Caco-2 cells treated with a cell lysis agent as being 100%, the relative activity was calculated as a index of the cytotoxicity.

[1] = test system: rats fed cholesterol food; test: Blood cholesterol lowering effect in rats fed cholesterol food; type: in vivo, rat; conditions: 0.3 mg/kg per administration, oral, twice per day; SD (IGS) male rats; serum 3 hours after final administration
Procedure: In the present Test Example, a blood cholesterol lowering effect on rats fed cholesterol food was evaluated according to the method described in J. Lipid Res., 1995, 36, 1098-1105.
That is, the food containing 0.4% cholesterol and 0.5% bile acid was given to SD (IGS) strain male rats at 7 to 9 weeks of age for 5 days in advance of the test date, to increase blood cholesterol levels. The rats in which the blood cholesterol level had been obviously elevated from the level before loading the cholesterol food were selected as the subjects in the test. Colestimide (brand name: Cholebine 70% granules, supplied from Mitsubishi Tokyo Pharmaceutical Inc.) which is an anion exchange resin drug was suspended in distilled water, and the test compound was dissolved or suspended in distilled water. They were orally administered forcibly twice per day everyday from the starting date (each n=8). The blood was collected from jugular vein 3 hours after the drug administration on the final day of the experiment, and the cholesterol level in serum was measured to examine the effect of the test compound. As a control, another group (n=8) was merely fed cholesterol food, to which distilled water (1 mL/kg) was administered and the same procedure was applied. The total cholesterol value and the HDL cholesterol value were measured using commercially available kits. The value obtained by subtracting the HDL cholesterol value from the total cholesterol value was regarded as an LDL+VLDL cholesterol value.

human IBAT = target: T1, human IBAT (Homo sapiens, UniProt Q12908); test: In vitro assay using Cos 7 cells, transiently expressed human IBAT; type: cell-based; conditions: 37° C., 60 minutes
T1 sequence (Q12908 1-348): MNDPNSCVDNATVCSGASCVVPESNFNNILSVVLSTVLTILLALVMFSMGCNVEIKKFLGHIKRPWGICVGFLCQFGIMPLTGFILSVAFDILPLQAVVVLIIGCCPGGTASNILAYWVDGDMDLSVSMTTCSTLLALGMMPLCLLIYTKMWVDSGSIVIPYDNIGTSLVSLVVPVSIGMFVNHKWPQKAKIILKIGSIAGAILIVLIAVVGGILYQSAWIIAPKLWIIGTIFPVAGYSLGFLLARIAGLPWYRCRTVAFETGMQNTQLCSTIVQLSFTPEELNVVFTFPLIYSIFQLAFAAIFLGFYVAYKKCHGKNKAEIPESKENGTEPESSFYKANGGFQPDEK
In short: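 Cos 7 cells transfected with human or rat IBAT cDNA were assayed one day later in Hanks buffer with 25 mM glucose and 10 mM HEPES (pH 7.4) containing compound. [^3H]-taurocholate (8 μM final) uptake ran 60 min at 37° C. Cells were washed with 1 mM taurocholate, lysed in NaOH, and counted by liquid scintillation.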

[2] = 0.1 mg/kg oral with cholic acid 200 mg/kg, portal vein serum total bile acid 2 hours after, control = 100%, surfactant HCO-60 (##)
[3] = 0.1 mg/kg oral, surfactant HCO-60 0.1%, cholic acid 200 mg/kg, portal vein blood 2 hours after administration
[4] = 0.1 mg/kg oral, surfactant Tween 20 0.05%, cholic acid 200 mg/kg, portal vein blood 2 hours after administration

| SMILES | CELL TOXICITY AGAINST Caco2 3 μM (Caco-2 cell) [%] | CELL TOXICITY AGAINST Caco2 10 μM (Caco-2 cell) [%] | CELL TOXICITY AGAINST Caco2 30 μM (Caco-2 cell) [%] | BILE ACID REDUCTION RATE (%) IN RAT MODEL WITH CHOLIC ACID LOADING (rats dosed cholic acid; [2]) [%] | IC50 (human IBAT; [3H]-taurocholate 8 μM uptake) [nM] | also measured |
| --- | --- | --- | --- | --- | --- | --- |
| CCCCC1(CCCC)CS(=O)(=O)c2ccc(N(C)C)cc2C(c2cccc(NC(=S)Nc3ccc(C[n+]4cccc(CC#N)c4)cc3)c2)N1.[Br-] (centres unmarked) [EXAMPLE 3759] | <1 | <1 | <1 |  |  | BILE ACID REDUCTION RATE (%) IN RAT MODEL WITH CHOLIC ACID LOADING (rats dosed cholic acid; 0.3 mg/kg oral with cholic acid 200 mg/kg, portal vein serum total bile acid 2 hours after, control = 100%, surfactant HCO-60 (##)): 36% |
| CCCCC1(CCCC)CS(=O)(=O)c2ccc(N(C)C)cc2C(c2cccc(NC(=S)Nc3ccc(C[n+]4ccc(C(C)(C)C)cc4)c(C)c3)c2)N1.[Br-] (centres unmarked) [EXAMPLE P365] |  |  |  | 40 |  | LDL + VLDL REDUCTION RATE (%) IN CHOLESTEROL FED RAT MODEL (THERAPEUTIC MODEL) [1]: 44%; IC50 (human IBAT; [3H]-taurocholate 8 μM): 47 nM |
| CCCCC1(CCCC)CS(=O)(=O)c2ccc(N(C)C)cc2C(c2ccc(NC(=S)Nc3cccc(C[N+]45CCC(CC4)CC5)c3)cc2)N1.[Br-] (centres unmarked) [Example 5406, 1-(3-{3-[4-(3,3-dibutyl-7-dimethylamino-1,1-dioxo-2,3,4,5-tetrahydro-1,4-benzothiazepine-5-yl)phenyl]thioureido}benzyl)-1-azoniabicyclo[2.2.2]octane bromide] |  |  |  |  |  | BILE ACID REDUCTION RATE (%) IN RAT MODEL WITH CHOLIC ACID LOADING (rats dosed cholic acid; po, 0.1 mg/kg, 2 h): 15% |
| CCCCC1(CCCC)CS(=O)(=O)c2ccc(N(C)C)cc2C(c2cccc(NC(=S)Nc3ccc(C[n+]4ccc(C(C)(C)C)cc4)cc3F)c2)N1.[Br-] (centres unmarked) [EXAMPLE P366] |  |  |  | 45 | 25 | LDL + VLDL REDUCTION RATE (%) IN CHOLESTEROL FED RAT MODEL (THERAPEUTIC MODEL) [1]: 31% |
| CCCCC1(CCCC)CS(=O)(=O)c2ccc(N(C)C)cc2C(c2cccc(NC(=S)Nc3ccc(C[N+]4(Cc5ccccc5)CCC(CCO)CC4)cc3)c2)N1.[Br-] (centres unmarked) [EXAMPLE 3608] | <1 | <1 | <1 |  | 59 | BILE ACID REDUCTION RATE (%) IN RAT MODEL WITH CHOLIC ACID LOADING (rats dosed cholic acid; [3]): 43% |
| CCCCC1(CCCC)CS(=O)(=O)c2ccc(N(C)C)cc2C(c2cccc(NC(=S)NCCC[N+]34CCC(CC3)CC4)c2)N1.[Br-] (centres unmarked) [Example 9, 1-(3-{3-[3-(3,3-dibutyl-7-dimethylamino-1,1-dioxo-2,3,4,5-tetrahydro-1,4-benzothiazepine-5-yl)phenyl]thioureido}propyl)-1-azoniabicyclo[2.2.2]octane bromide] |  |  |  |  |  | BILE ACID REDUCTION RATE (%) IN RAT MODEL WITH CHOLIC ACID LOADING (rats dosed cholic acid; [4]): 13% |
| CCCCC1(CCCC)CS(=O)(=O)c2ccc(N(C)C)cc2C(c2cccc(NC(=S)Nc3ccc(C[n+]4ccc5ccccc5c4)cc3)c2)N1.[Br-] (centres unmarked) [EXAMPLE 3783] | <1 | <1 | <1 | 16 | 48 |  |
| CCCCC1(CCCC)CS(=O)(=O)c2ccc(N(C)C)cc2C(c2cccc(NC(=S)Nc3ccc(C[N+]4(Cc5ccccc5)CCCC(CO)C4)cc3)c2)N1.[Br-] (centres unmarked) [EXAMPLE 3607] | <1 | <1 | <1 |  | 41 | BILE ACID REDUCTION RATE (%) IN RAT MODEL WITH CHOLIC ACID LOADING (rats dosed cholic acid; [3]): 36% |
| CCCCC1(CCCC)CS(=O)(=O)c2ccc(N(C)C)cc2C(c2cccc(NC(=S)NCCC[N+](C)(C)Cc3ccccc3)c2)N1.[Br-] (centres unmarked) [EXAMPLE 425] |  |  |  |  | 170 | BILE ACID REDUCTION RATE (%) IN RAT MODEL WITH CHOLIC ACID LOADING (rats dosed cholic acid; [4]): 21% |
| CCCCC1(CCCC)CS(=O)(=O)c2ccc(N(C)C)cc2C(c2cccc(NC(=S)CCCCC[N+](C)(C)Cc3ccccc3)c2)N1.[Br-] (centres unmarked) [EXAMPLE 3835] | <1 | <1 | <1 |  | 43 | BILE ACID REDUCTION RATE (%) IN RAT MODEL WITH CHOLIC ACID LOADING (rats dosed cholic acid; [4]): 23% |
| CCCCC1(CCCC)CS(=O)(=O)c2ccc(N(C)C)cc2C(c2cccc(NC(=S)Nc3ccc(C[N+](C)(C)CCCC)cc3)c2)N1.[Br-] (racemic) [EXAMPLE 3409] | <1 | <1 | <1 | 28 | 45 |  |
| CCCCC1(CCCC)CS(=O)(=O)c2ccc(N(C)C)cc2C(c2cccc(NC(=S)Nc3ccc(C[N+](C)(C)CCOCCO)cc3)c2)N1.[Br-] (racemic) [EXAMPLE 3475] |  |  |  | 19 |  |  |
| CCCCC1(CCCC)CS(=O)(=O)c2ccc(N(C)C)cc2C(c2cccc(NC(=S)Nc3ccccc3C[N+]34CCC(CC3)CC4)c2)N1.[Br-] (centres unmarked) [EXAMPLE 4905] |  |  |  | 28 |  |  |
| CCCCC1(CCCC)CS(=O)(=O)c2ccc(N(C)C)cc2C(c2cccc(NC(=S)NCCCC[N+](C)(C)Cc3ccccc3)c2)N1.[Br-] (centres unmarked) [EXAMPLE 801] |  |  |  |  |  | BILE ACID REDUCTION RATE (%) IN RAT MODEL WITH CHOLIC ACID LOADING (rats dosed cholic acid; [3]): 33% |
| CCCCC1(CCCC)CS(=O)(=O)c2ccc(N(C)C)cc2C(c2cccc(NC(=S)Nc3ccc(C[n+]4ccc(CC)cc4)cc3)c2)N1.[Br-] (centres unmarked) [EXAMPLE 3710] | <1 | <1 | <1 | 20 | 52 |  |
